Test results taken from patent US8563714B2, “Bridged spiro [2.4] heptane derivatives as ALX receptor and/or FPRL2 agonists” (Actelion Pharmaceuticals Ltd., priority 2009, dated 2013).

Experiments:
[1] = biological target: T1, human ALX receptor (Homo sapiens, UniProt P25090); assay: Intracellular calcium measurements (FLIPR), agonistic activity in HEK293-hALXR-Gα16 cells; type: cell-based; details: Fluo-4 calcium FLIPR, normalized to WKYMVm 10 nM
T1 construct: expressed in transfected cells; host or cells: HEK293 (HEK293-hALXR-Gα16)
T1 sequence (P25090 1-351): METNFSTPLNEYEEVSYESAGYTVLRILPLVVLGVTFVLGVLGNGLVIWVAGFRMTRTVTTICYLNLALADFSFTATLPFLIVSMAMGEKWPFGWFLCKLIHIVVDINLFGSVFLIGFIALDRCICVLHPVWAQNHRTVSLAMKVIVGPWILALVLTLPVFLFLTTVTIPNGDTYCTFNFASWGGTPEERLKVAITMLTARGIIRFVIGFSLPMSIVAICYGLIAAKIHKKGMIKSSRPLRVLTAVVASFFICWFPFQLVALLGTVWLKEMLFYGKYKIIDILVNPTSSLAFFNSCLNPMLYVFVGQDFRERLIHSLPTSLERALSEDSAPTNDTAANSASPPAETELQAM
Method in brief: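 Agonist-induced calcium flux was recorded by FLIPR (488/540 nm) in HEK293-hALXR-Gα16 cells pre-loaded with Fluo-4 AM (1 μM, 60 min, 37°C). Peak signal above baseline, after subtracting buffer addition, was expressed relative to WKYMVm at 10 nM final.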

[2] = biological target: T2, human FPRL2 (Homo sapiens, UniProt P25089); assay: Intracellular calcium measurements (FLIPR), agonistic activity in HEK293-hFPRL2-Gα16 cells; type: cell-based; details: Fluo-4 calcium FLIPR, normalized to GLY14-Humanin 100 nM
T2 construct: expressed in transfected cells; host or cells: HEK293 (HEK293-hFPRL2-Gα16)
T2 sequence (P25089 1-353): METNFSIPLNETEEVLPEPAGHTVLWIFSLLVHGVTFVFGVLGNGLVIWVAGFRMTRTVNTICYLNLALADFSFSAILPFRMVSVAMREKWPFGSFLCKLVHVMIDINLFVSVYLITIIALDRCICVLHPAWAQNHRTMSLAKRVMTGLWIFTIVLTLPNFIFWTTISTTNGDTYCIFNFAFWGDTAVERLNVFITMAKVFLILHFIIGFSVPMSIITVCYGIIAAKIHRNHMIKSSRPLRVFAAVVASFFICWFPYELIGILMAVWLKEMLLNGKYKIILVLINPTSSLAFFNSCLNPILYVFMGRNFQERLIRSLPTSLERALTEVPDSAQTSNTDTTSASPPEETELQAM
Method in brief: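 Peak values after baseline subtraction are expressed relative to 100 nM Gly14-Humanin; compounds diluted in assay buffer from 10 mM DMSO stocks.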

| SMILES | EC50 [1] [nM] | EC50 [2] [nM] |
| --- | --- | --- |
| CC(=O)c1csc(CNC(=O)[C@H]2[C@H](C(=O)NCCCc3nc4ccccc4[nH]3)[C@H]3C=C[C@@H]2C32CC2)n1 (racemic) [Example 247, (5R*)—N^5-(4-Acetyl-thiazol-2-yl-methyl)-(6R*)—N^6-(3-(1H-benzoimidazol-2-yl)-propyl)-(4S*,7R*)-[4,7-ethenylene-spiro[2.4]heptane]-5,6-dicarboxamide] | 106 | 1080 |
| O=C(NCCCc1nc2ccccc2[nH]1)[C@H]1[C@H](C(=O)Nc2ncc(Br)s2)[C@@H]2C=C[C@H]1C21CC1 (racemic) [Example 248, (5R*)—N^5-(5-Bromo-thiazol-2-yl)-(6R*)—N^6-(3-(1H-benzoimidazol-2-yl)-propyl)-(4S*,7R*)-[4,7-ethenylene-spiro[2.4]heptane]-5,6-dicarboxamide] | 174 | 3060 |
| O=C(NCCCc1nc2ccccc2[nH]1)[C@H]1[C@H](C(=O)NCc2ccc(Br)cc2)[C@@H]2C=C[C@H]1C21CC1 (racemic) [Example 249, (5R*)—N^5-(4-Bromo-phenyl-methyl)-(6R*)—N^6-(3-(1H-benzoimidazol-2-yl)-propyl)-(4S*,7R*)-[4,7-ethenylene-spiro[2.4]heptane]-5,6-dicarboxamide] | 216 | 47 |
| COc1ccc(NC(=O)[C@H]2[C@H](C(=O)NCCCCN3CCCC3)[C@H]3C=C[C@@H]2C32CC2)cn1 (racemic) [Example 250, (5R*)—N^5-(2-Methoxy-pyrid-5-yl)-(6R*)—N^6-(4-pyrrolidin-1-yl-butyl)-(4S*,7R*)-[4,7-ethenylene-spiro[2.4]heptane]-5,6-dicarboxamide] | 673 | 746 |
| O=C(NCCCCN1CCCC1)[C@H]1[C@H](C(=O)Nc2cnc(Br)cn2)[C@@H]2C=C[C@H]1C21CC1 (racemic) [Example 251, (5R*)—N^5-(2-Bromo-pyrazin-5-yl)-(6R*)—N^6-(4-pyrrolidin-1-yl-butyl)-(4S*,7R*)-[4,7-ethenylene-spiro[2.4]heptane]-5,6-dicarboxamide] | 7.9 | 558 |
| O=C(NCCCCN1CCCC1)[C@H]1[C@H](C(=O)Nc2ccc(C(F)(F)F)cn2)[C@@H]2C=C[C@H]1C21CC1 (racemic) [Example 252, (5R*)—N^5-(5-Trifluoromethyl-pyridin-2-yl)-(6R*)—N^6-(4-pyrrolidin-1-yl-butyl)-(4S*,7R*)-[4,7-ethenylene-spiro[2.4]heptane]-5,6-dicarboxamide] | 82 | 210 |
| O=C(NCCCCN1CCCC1)[C@H]1[C@H](C(=O)Nc2ccc3ncoc3c2)[C@@H]2C=C[C@H]1C21CC1 (racemic) [Example 254, (5R*)—N^5-(Benzo[d]oxazol-6-yl)-(6R*)—N^6-(4-pyrrolidin-1-yl-butyl)-(4S*,7R*)-[4,7-ethenylene-spiro[2.4]heptane]-5,6-dicarboxamide] | 492 | 67 |
| Cc1cc(CNC(=O)[C@H]2[C@H](C(=O)NCCCCN3CCCC3)[C@H]3C=C[C@@H]2C32CC2)no1 (racemic) [Example 255, (5R*)—N^5-(5-Methyl-isoxazol-3-yl-methyl)-(6R*)—N^6-(4-pyrrolidin-1-yl-butyl)-(4S*,7R*)-[4,7-ethenylene-spiro[2.4]heptane]-5,6-dicarboxamide] | 40 | 489 |
| Cc1csc(NC(=O)[C@H]2[C@H](C(=O)NCCCCN3CCCC3)[C@H]3C=C[C@@H]2C32CC2)n1 (racemic) [Example 256, (5R*)—N^5-(4-Methyl-thiazol-2-yl)-(6R*)—N^6-(4-pyrrolidin-1-yl-butyl)-(4S*,7R*)-[4,7-ethenylene-spiro[2.4]heptane]-5,6-dicarboxamide] | 6720 | 348 |
| O=C(NCCCCN1CCCC1)[C@H]1[C@H](C(=O)Nc2nnc(C(F)(F)F)s2)[C@@H]2C=C[C@H]1C21CC1 (racemic) [Example 257, (5R*)—N^5-(5-Trifluoromethyl-1,3,4-thiadiazol-2-yl)-(6R*)—N^6-(4-pyrrolidin-1-yl-butyl)-(4S*,7R*)-[4,7-ethenylene-spiro[2.4]heptane]-5,6-dicarboxamide] | 6010 | 167 |
| O=C(NCCF)[C@H]1[C@H](C(=O)Nc2ncc(Br)s2)[C@@H]2C=C[C@H]1C21CC1 (racemic) [Example 259, (5R*)—N^5-(5-Bromo-thiazol-2-yl)-(6R*)—N^6-(2-fluoro-ethyl)-(4S*,7R*)-[4,7-ethenylene-spiro[2.4]heptane]-5,6-dicarboxamide] | 354 | > 25000 |
| O=C(NCCN1CCNC1=O)[C@H]1[C@H](C(=O)Nc2ncc(Br)s2)[C@@H]2C=C[C@H]1C21CC1 (racemic) [Example 260, (5R*)—N^5-(5-Bromo-thiazol-2-yl)-(6R*)—N^6-((2-imidazolidin-2-on)-1-yl-ethyl)-(4S*,7R*)-[4,7-ethenylene-spiro[2.4]heptane]-5,6-dicarboxamide] | 9.1 | 8730 |
| CC(=O)c1csc(CNC(=O)[C@H]2[C@H](C(=O)NCCC(N)=O)[C@H]3C=C[C@@H]2C32CC2)n1 (racemic) [Example 261, (5R*)—N^5-(4-Acetyl-thiazol-2-yl-methyl)-(6R*)—N^6-(3-amino-3-oxopropyl)-(4S*,7R*)-[4,7-ethenylene-spiro[2.4]heptane]-5,6-dicarboxamide] | 297 | > 25000 |

Next, values leading:

| EC50 [1] [nM] | EC50 [2] [nM] | SMILES |
| --- | --- | --- |
| 97 | 106 | CCN(CC)CCCCNC(=O)[C@H]1[C@H](C(=O)NCc2nc(C(C)=O)cs2)[C@@H]2C=C[C@H]1C21CC1 (racemic) [Example 262, (5R*)—N^5-(4-Acetyl-thiazol-2-yl-methyl)-(6R*)—N^6-(4-diethylamino-butyl)-(4S*,7R*)-[4,7-ethenylene-spiro[2.4]heptane]-5,6-dicarboxamide] |
| 899 | 4460 | CCOCCCNC(=O)[C@H]1[C@H](C(=O)NCc2ccc(Br)cc2)[C@@H]2C=C[C@H]1C21CC1 (racemic) [Example 263, (5R*)—N^5-(4-Bromophenyl-methyl)-(6R*)—N^6-(3-ethoxy-propyl)-(4S*,7R*)-[4,7-ethenylene-spiro[2.4]heptane]-5,6-dicarboxamide] |
| 140 | 835 | CC(=O)c1csc(CNC(=O)[C@H]2[C@H](C(=O)NCCCN3CCCC3)[C@H]3C=C[C@@H]2C32CC2)n1 (racemic) [Example 264, (5R*)—N^5-(4-Acetyl-thiazol-2-yl-methyl)-(6R*)—N^6-(3-pyrrolidino-propyl)-(4S*,7R*)-[4,7-ethenylene-spiro[2.4]heptane]-5,6-dicarboxamide] |
| 49 | 462 | CN1CCN(CCCNC(=O)[C@H]2[C@H](C(=O)Nc3ncc(Br)s3)[C@@H]3C=C[C@H]2C32CC2)CC1 (racemic) [Example 265, (5R*)—N^5-(5-Bromothiazol-2-yl)-(6R*)—N^6-(3-(4-methylpiperazin-1-yl)-propyl)-(4S*,7R*)-[4,7-ethenylene-spiro[2.4]heptane]-5,6-dicarboxamide] |
| 65 | 1210 | CC(=O)c1csc(CNC(=O)[C@H]2[C@H](C(=O)NCCN(C)C)[C@H]3C=C[C@@H]2C32CC2)n1 (racemic) [Example 266, (5R*)—N^5-(4-Acetyl-thiazol-2-yl-methyl)-(6R*)—N^6-(2-dimethylamino-ethyl)-(4S*,7R*)-[4,7-ethenylene-spiro[2.4]heptane]-5,6-dicarboxamide] |
| 288 | 15300 | CC(=O)c1csc(CNC(=O)[C@H]2[C@H](C(=O)NCCCN(C)C)[C@H]3C=C[C@@H]2C32CC2)n1 (racemic) [Example 267, (5R*)—N^5-(4-Acetyl-thiazol-2-yl-methyl)-(6R*)—N^6-(3-dimethylamino-propyl)-(4S*,7R*)-[4,7-ethenylene-spiro[2.4]heptane]-5,6-dicarboxamide] |
| 477 | 22900 | CC(=O)c1csc(CNC(=O)[C@H]2[C@H](C(=O)NCCCN3CCN(C)CC3)[C@H]3C=C[C@@H]2C32CC2)n1 (racemic) [Example 268, (5R*)—N^5-(4-Acetyl-thiazol-2-yl-methyl)-(6R*)—N^6-(3-(4-methylpiperazin-1-yl)-propyl)-(4S*,7R*)-[4,7-ethenylene-spiro[2.4]heptane]-5,6-dicarboxamide] |
